In ChEMBL document CHEMBL1146094, “Screening for cardiovascular safety: a structure-activity approach for guiding lead selection of melanin concentrating hormone receptor 1 antagonists” (J Med Chem, 2006):
Values belong to the compound of their own block, whether it stands above or below them.

Key:
[1] = tested on: IMR-32; assay: Inhibition of MCH-mediated calcium release in whole IMR32 cells by FLIPR assay; assay type: functional, cell-based; details: Homo sapiens
[2] = tested on: Rattus norvegicus; assay: End-of-study drug concentration in inactin-anesthetized Sprague-Dawley rat plasma; assay type: functional
[3] = tested on: Rattus norvegicus; assay: End-of-study drug concentration in inactin-anesthetized Sprague-Dawley rat brain; assay type: functional
[4] = AUC in DIO mice plasma at 10 mg/kg, po; assay type: ADME, organism-based; set-up: dose 10 mg/kg, route oral; details: mouse
[5] = biological target: Melanin-concentrating hormone receptor 1 (Homo sapiens, UniProt Q99705); assay: Displacement of [125I]MCH from MCHr1 expressed in IMR32 (I3.4.2) cells; assay type: cell-based
Melanin-concentrating hormone receptor 1, sequence (Q99705 whole entry): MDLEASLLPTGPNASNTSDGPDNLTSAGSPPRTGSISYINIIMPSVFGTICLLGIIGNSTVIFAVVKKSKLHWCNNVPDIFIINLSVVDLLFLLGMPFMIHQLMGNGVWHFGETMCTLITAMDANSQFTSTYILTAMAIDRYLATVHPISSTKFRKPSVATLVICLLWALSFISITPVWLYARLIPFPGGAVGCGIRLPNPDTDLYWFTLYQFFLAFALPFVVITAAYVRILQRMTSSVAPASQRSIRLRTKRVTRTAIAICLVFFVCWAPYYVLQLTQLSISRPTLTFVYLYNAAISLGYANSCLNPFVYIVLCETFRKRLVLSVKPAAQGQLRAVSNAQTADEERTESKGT

[6] = tested on: Mus musculus; assay: AUC in DIO mice brain at 10 mg/kg, po; assay type: ADME, organism-based; set-up: dose 10 mg/kg, route oral; details: in vivo
[7] = tested on: IMR-32; assay: Inhibition of MCH-mediated calcium release in whole IMR32 cells at 10 uM by FLIPR assay; assay type: functional; details: Homo sapiens

Structure (SMILES): O=C(Nc1ccc(Oc2ccccc2)cc1)Nc1ccc2nn(CCN3CC[C@H](O)C3)cc2c1
AUC [4]: 1020 ng·h/mL
IC50 [5]: 57 nM
IC50 [1]: 214 nM
Activity [2]: 201 µM
AUC [6]: 0 µg·h/g
Activity [3]: 3 µg/g

Structure (SMILES): O=C(Nc1ccc(Oc2ccccc2)cc1)Nc1ccc2c(cnn2CCN2CCCC2)c1
Activity [2]: 88 µM
Activity [3]: 10 µg/g

Structure (SMILES): O=C(Nc1ccc(Oc2ccccc2)cc1)Nc1ccc2nn(CCN3CCCC3)cc2c1
IC50 [5]: 46 nM
IC50 [1]: 314 nM
Activity [2]: 558 µM
Activity [3]: 6 µg/g

Structure (SMILES): O=C(Nc1ccc(Oc2ccccc2)cc1)Nc1ccc2c(cnn2CCN2CCCCC2)c1
IC50 [5]: 5 nM
IC50 [1]: 136 nM
Activity [2]: 77 µM
Activity [3]: 13 µg/g

Structure (SMILES): Clc1ccc2[nH]nc(NC3CCN(Cc4ccc5c(c4)OCO5)CC3)c2c1
IC50 [5]: 16 nM
IC50 [1]: 376 nM
Activity [2]: 22 µM
Activity [3]: 30 µg/g

Structure (SMILES): CC(C)OCCNc1ncc(Cl)cc1C(=O)NC1CCCN(Cc2ccc3c(c2)OCO3)C1 (configuration not stated)
inhibition at 10 µM [7]: 30%
Activity [2]: 61 µM
Activity [3]: 138 µg/g

Structure (SMILES): COc1ccc(CC(=O)Nc2ccc3cnn(CCN4CCCC4)c3c2)cc1
IC50 [5]: 3630 nM
inhibition at 10 µM [7]: 14%
IC50 [1]: > 10000 nM
Activity [2]: 39 µM
Activity [3]: 6 µg/g

Structure (SMILES): O=C(Cc1ccc(OCc2ccccc2)cc1)Nc1ccc2c(cnn2CCN2CCCC2)c1
inhibition at 10 µM [7]: 14%
Activity [2]: 53 µM
Activity [3]: 46 µg/g

Structure (SMILES): O=C(Cc1ccc(Oc2ccccc2)cc1)Nc1ccc2c(cnn2CCN2CCCC2)c1
IC50 [5]: 78 nM
IC50 [1]: 309 nM
Activity [2]: 2 µM

Continued by falling IC50 [1], values first:

IC50 [5]: 4 nM
IC50 [1]: 103 nM
Structure (SMILES): O=C(Nc1ccc(Oc2ccccc2)cc1)Nc1ccc2c(cnn2CCN2CCCCCC2)c1

IC50 [5]: 3 nM
IC50 [1]: 83 nM
Structure (SMILES): O=C(NC1CCN(Cc2ccc3c(c2)OCO3)CC1)c1cc(=O)c2cc(Cl)c(Cl)cc2o1
Activity [2]: 42 µM
Activity [3]: 63 µg/g

IC50 [5]: 10 nM
IC50 [1]: 74 nM
Structure (SMILES): COc1ccc2nccc(NC3CCN(Cc4ccc5c(c4)OCO5)CC3)c2c1

AUC [4]: 18700 ng·h/mL
IC50 [5]: 6 nM
IC50 [1]: 73 nM
AUC [6]: 4.4 µg·h/g
Structure (SMILES): COc1ccc2c(=O)cc(C(=O)NC3CCN(Cc4ccc5c(c4)OCO5)CC3)oc2c1
Activity [2]: 66 µM
Activity [3]: 158 µg/g

IC50 [1]: 71 nM
Structure (SMILES): O=C(Cc1ccc(OCc2ccccc2)cc1)Nc1cccc2c1cnn2CCN1CCCC1
Activity [2]: 4 µM

IC50 [1]: 53 nM
Structure (SMILES): O=C(NC1CCN(Cc2ccc3c(c2)OCO3)CC1)c1cc(Cl)ccc1NCc1nccs1
Activity [2]: 91 µM

IC50 [1]: 25 nM
Structure (SMILES): CC(C)OCCNc1ncc(Cl)cc1C(=O)NC1CCN(Cc2ccc3c(c2)OCO3)CC1
Activity [2]: 44 µM
Activity [3]: 88 µg/g

IC50 [1]: 11 nM
Structure (SMILES): O=C(Cc1ccc(OCc2ccccc2)cc1)Nc1ccc2cnn(CCN3CCCC3)c2c1
Activity [2]: 23 µM
Activity [3]: 10 µg/g

IC50 [5]: 2 nM
IC50 [1]: 11 nM
Structure (SMILES): COc1ccc2oc(O)c/c(=N\C3CCN(Cc4ccc5c(c4)OCO5)CC3)c2c1
Activity [2]: 272 µM
Activity [3]: 71 µg/g
